Laboratory results taken from patent US12357605B2, “Muscle building agent” (KANEKA CORPORATION, priority 2019, dated 2025).

Test system: muscle satellite cells
Test: Evaluation of muscle satellite cell activating effect (ratio of BrdU positive cells)
Type: cell-based, SD rat
Settings: for Ratio of activated muscle satellite cells, Mean: 24 hours culture, BrdU positive cells / total cells, solvent control 41.3%; for muscle satellite cell activating effect: in comparison with the solvent control, result in words
Experimental: The muscle satellite cells activation effect can be evaluated by, for example, the following in vitro test. Specifically, muscle satellite cells are isolated from an animal and cultured in a culture medium containing test sample for 24 hours. Then, bromodeoxyuridine (BrdU) is added thereto at the final concentration of 10 μM, and the mixture is incubated for 2 hours. Next, the muscle satellite cells are fixed at 4° C. for 10 minutes with ice-cooled methanol containing 0.1% H2O2 and are subjected to DNA denaturation treatment at 37° C. for 1 hour using 2 N hydrochloric acid, and BrdU positive cells are detected by using anti-BrdU antibody as a primary antibody, HRP-conjugated anti-mouse IgG antibody as a secondary antibody, and coloring with diaminobenzidine (DAB). The ratio of BrdU positive cells to the total number of cells is calculated as the ratio of activated muscle satellite cells. It is judged with respect to the ratio of activated muscle satellite cells of the muscle building agent according to the present invention that muscle satellite cells are activated in the case where a ratio of activated muscle satellite cells is increased by a treatment with a test substrate in comparison with a solvent control. An increase to a solvent control is preferably 2% or more, more preferably 3% or more and even more preferably 5% or more.
Muscle tissues were isolated from the upper hindlimb and back of 6-month old male SD rat (from Japan SLC). The muscle tissues were trimmed of adipose and connective tissue, minced, and treated with PBS containing 1.25 mg/mL protease (Sigma) at 37° C. for 1 hour. After muscle fiber fragments and tissue debris were removed by centrifugation, the cells were seeded on plates coated with polylysine (Sigma) and fibronectin (Sigma). After the cells were cultured in 5% CO2 atmosphere at 37° C. for 24 hours, muscle satellite cells were isolated by washing with PBS. DMEM (“Dulbecco's Modified Eagle Medium”, Thermo Fisher Scientific) containing 10% horse serum (Thermo Fisher Scientific) was used as a culture media. The culture media is hereinafter abbreviated as “10% HS-DMEM”.
The casuarinin prepared in Example 1 or the stachyurin prepared in Example 2 was dissolved in water and added in 10% HS-DMEM to prepare the 10% HS-DMEM containing casuarinin or stachyurin. The culture medium of the isolated muscle satellite cells were exchanged for the 10% HS-DMEM containing casuarinin or stachyurin, and the muscle satellite cells were cultured for 24 hours. Casuarinin concentrations were adjusted to 0.01 to 1.1 μM (13 to 1000 ng/mL), and stachyurin concentrations were adjusted to 0.09 to 0.4 μM (83 to 333 ng/mL). As a solvent control, 10% HS-DMEM was used.
Bromodeoxyuridine (BrdU, Sigma) was added to the culture medium at the final concentration of 10 μM, and the mixture was incubated for 2 hours. Then, the muscle satellite cells were fixed at 4° C. for 10 minutes with ice-cooled methanol containing 0.1% H2O2 and were further subjected to DNA denaturation treatment using 2 N hydrochloric acid at 37° C. for 1 hour, and BrdU positive cells were detected by using anti-BrdU antibody (Sigma) as a primary antibody, HRP-conjugated anti-mouse IgG antibody (Sigma) as a secondary antibody, and coloring with diaminobenzidine (DAB, Sigma). The ratio of BrdU positive cells to the total number of cells was calculated as the ratio of activated muscle satellite cells. The experiments were performed in 12 independent cell cultures in the case of the solvent control, and in 3 independent cultures in each concentration in the case of casuarinin or stachyurin. Data were expressed as the mean and standard deviation. The “*” in FIGS. 1 and 2 represents that the difference to the solvent control was statistically significant at p<0.05 by Dunnett's test. […]

O=C(O[C@@H]1COC(=O)c2cc(O)c(O)c(O)c2-c2c(cc(O)c(O)c2O)C(=O)O[C@H]1[C@@H]1OC(=O)c2cc(O)c(O)c(O)c2-c2c(O)c(O)c(O)c3c2C(=O)O[C@H]1C3O)c1cc(O)c(O)c(O)c1 (stereo partly drawn) [Casuarinin, casuarinin]
Ratio of activated muscle satellite cells, Mean (0.01 μM (13 ng/mL)): 43.3% | Ratio of activated muscle satellite cells, Mean (0.03 μM (25 ng/mL)): 44.9% | Ratio of activated muscle satellite cells, Mean (0.05 μM (50 ng/mL)): 51.3% | Ratio of activated muscle satellite cells, Mean (100 ng/mL): 50.8% | Ratio of activated muscle satellite cells, Mean (0.3 μM (250 ng/mL)): 48.8% | Ratio of activated muscle satellite cells, Mean (1.1 μM (1000 ng/mL)): 43.7% | muscle satellite cell activating effect: significant muscle satellite cell activating effect

C[C@@H]1O[C@@H](Oc2c(-c3ccc(O)c(O)c3)oc3cc(O)cc(O)c3c2=O)[C@H](O)[C@H](O)[C@H]1O [Quercitrin, quercitrin, reference compound]
Ratio of activated muscle satellite cells, Mean (100 ng/mL): 40.0%

O=C(O[C@@H]1COC(=O)c2cc(O)c(O)c(O)c2-c2c(cc(O)c(O)c2O)C(=O)O[C@H]1[C@@H]1OC(=O)c2cc(O)c(O)c(O)c2-c2c(O)c(O)c(O)c3c2C(=O)O[C@H]1[C@H]3O)c1cc(O)c(O)c(O)c1 [Stachyurin, stachyurin]
Ratio of activated muscle satellite cells, Mean (0.09 μM (83 ng/mL)): 44.7% | Ratio of activated muscle satellite cells, Mean (0.4 μM (333 ng/mL)): 48.5% | muscle satellite cell activating effect: significant muscle satellite cell activating effect

C[C@@H]1OC(Oc2c(-c3cc(O)c(O)c(O)c3)oc3cc(O)cc(O)c3c2=O)[C@H](O)[C@H](O)[C@H]1O (stereo partly drawn) [Myricitrin, myricitrin, reference compound]
Ratio of activated muscle satellite cells, Mean (100 ng/mL): 41.8%

O=C1OC[C@H]2OC(=O)c3cc(O)c(O)c(O)c3-c3c(O)c(O)c(O)c4c3C(=O)O[C@H]([C@H]3OC(=O)c5c-4c(O)c(O)c(O)c5[C@H]3O)[C@@H]2OC(=O)c2cc(O)c(O)c(O)c2-c2c1cc(O)c(O)c2O [Castalagin, castalagin, reference compound]
Ratio of activated muscle satellite cells, Mean (100 ng/mL): 39.4%

O=C(O[C@@H]1OC2COC(=O)c3cc(O)c(O)c(O)c3-c3c(cc(O)c(O)c3O)C(=O)O[C@H]2[C@@H]2OC(=O)c3cc(O)c(O)c(O)c3-c3c(cc(O)c(O)c3O)C(=O)OC12)c1cc(O)c(O)c(O)c1 (stereo partly drawn) [Casuarictin, casuarictin, reference compound]
Ratio of activated muscle satellite cells, Mean (100 ng/mL): 39.2%

Oc1cc(O)c2c(c1)O[C@@H](c1ccc(O)c(O)c1)[C@H](O)C2 [Catechin, catechin, reference compound]
Ratio of activated muscle satellite cells, Mean (100 ng/mL): 42.1%

O=c1oc2c(O)c(O)cc3c(=O)oc4c(O)c(O)cc1c4c23 [Ellagic acid, ellagic acid, reference compound]
Ratio of activated muscle satellite cells, Mean (100 ng/mL): 38.3%

O=c1c(O[C@@H]2O[C@H](CO)[C@H](O)[C@H](O)[C@H]2O)c(-c2ccc(O)c(O)c2)oc2cc(O)cc(O)c12 [Hyperin, hyperin, reference compound]
Ratio of activated muscle satellite cells, Mean (100 ng/mL): 38.2%

O=C(O)c1cc(O)c(O)c(O)c1 [Gallic acid, gallic acid, reference compound]
Ratio of activated muscle satellite cells, Mean (100 ng/mL): 37.8%
